Experimental data taken from patent EP2792360A1, “(1aR,12bS)-8-cyclohexyl-11-fluoro-N-((1-methylcyclopropyl)sulfonyl)-1a-((3-methyl-3,8-diazabicyclo[3.2.1]oct-8-yl)carbonyl)-1,1a,2,2b-tetrahydrocyclopropa[d]indolo[2,1-a][2]benzazepine-5-carboxamide for use in treating HCV” (IP Gesellschaft für Management mbH, priority 2013, dated 2014).
“Also recorded” adds a separate entry of the source. Counter-ions that a name gives are not always drawn. Like-named read-outs stand apart in the source and are kept apart here. Values belong to the molecule of their own block, whether it stands above or below them.

Columns and labels:
[1] = Polymorphism assessment of HCl Pattern 2 (heat/cool cycles in solvents, XRPD); assay type: physicochemical
Text: . […] Table 18. Results from the polymorph assessment

[2] = Characterization of scale-up HCl Pattern 2 (Tables 16-17); assay type: physicochemical; details: for TGA heat / cool experiments: IC / TGA heat / cool experiments: XRPD: cooled and re-analysed; for solubility thermodynamic: thermodynamic from solid
[3] = Gravimetric vapour sorption (GVS) of salts of Formula V; assay type: physicochemical
[4] = VT-XRPD / VH-XRPD / drying stability of HCl salt forms of Formula V; details: for stability of the salt form on drying under vacuum at room temperature: ca. 16 hours, XRPD
Experimental: The humidity was controlled by mixing streams of dry and wet nitrogen, with a total flow rate of 200 mL.min-1 The relative humidity was measured by a calibrated Rotronic probe (dynamic range of 1.0 - 100%RH), located near the sample. The weight change (mass relaxation) of the sample as a function of %RH was constantly monitored by the microbalance (accuracy ±0.005 mg). Approximately 5 - 20 mg of sample was placed in a tared mesh stainless steel basket under ambient conditions. […] A moisture sorption isotherm was performed as outlined below (2 scans giving 1 complete cycle). […] Data analysis was undertaken in Microsoft Excel using DVS Analysis Suite v6.0.0.7. […] XRPD: X-Ray Powder Diffraction patterns were collected either on a Bruker AXS C2 GADDS diffractometer or a Bruker AXS D8 diffractometer. […] The beam divergence, i.e. the effective size of the X-ray beam on the sample, was approximately 4 mm. […] In a typical experiment, the sampleis exposed to the X-ray beam for 120 seconds. The software used for data collectionwas GADDS for WNT 4.1.16 and the data were analyzed and presented using Diffrac PlusEVA vl 1.0.0.2 or vl3.0.0.2. Ambient conditions: Samples run under ambient conditions were prepared as flat plate specimens using powder as received without grinding. Approximately 1 - 2 mg of the sample was lightly pressed on aglass slide to obtain a flat surface. Non-ambient conditions: Samples run under non-ambient conditions were mounted on a silicon wafer with heat-conducting compound. The sample was then heated to the appropriate temperatureat 10.C.min_1and subsequently held isothermally for 1 minute before data collection was initiated. On a Bruker D8 diffractometer, the following parameters were used: Cu Ka radiation (40 kV, 40 mA), θ - 20 goniometer, and divergence of V4 and receiving slits, a Ge monochromator and a Lynxeye detector. […] The software used for data collection was Diffrac Plus XRD Commander v2.5.0 and the data were analyzed and presented using Diffrac Plus EVA vl 1.0.0.2 or vl3.0.0.2. Samples were run under ambient conditions as flat plate specimens using powder as received. The sample was gently packed into a cavity cut into polished, zero-background (510) silicon wafer. The sample was rotated in its own plane during analysis. The details of the data collection are: · Angular range: 2 to 42°2Θ, · Step size: 0.05°2Θ, · Collection time: 0.5 s/step.

[5] = Relative stability (non-competitive and competitive interconversion) experiments of crystal forms of Compound 1; details: pXRD, DSC, 1H-NMR
Experimental: For the non-competitive experiments, only a single starting crystal form was used to study the potential conversion to another more stabb form. […] The slurry was cooled to 25-30 °C, filtered, suction dried for 1 hour and dried in a vacuum oven at 70 °C and 8 kPa absolute pressure for 12 hours. […] The slurry was cooled to 25-30 °C, filtered, suction dried for 1 hour and dried in a vacuum oven at 70 °C and 8 kPa absolute pressure for 12 hours. […] The slurry was cooled to 25-30 °C, filtered, suction dried for 1 hour and dried in a vacuum oven at 70 °C and 8 kPa absolute pressure for 12 hours.

[6] = Salt form assessment of the tosylate salt (chemical stability, disassociation, aqueous solubility); assay type: physicochemical
[7] = Solid form stability of forms of compound of formula (IV) (Temperature / Humidity Controlled XRPD, storage, suspension); assay type: physicochemical
Experimental: The term"XRPD" denotes the analytical method of X-Ray Powder Diffraction. XRPD patterns were recorded at ambient conditions in transmission geometry with a STOE STADI P diffractometer (Cu K alpha radiation source, primary monochromator, position sensitive detector, angular range 3° to 42° 2Theta, approximately 60 minutes total measurement time). The repeatability of the angular values is in the range of 2Theta ±0.2°. The term "approximately" given in combination with an angular value denotes the repeatability which is in the range of 2Theta ±0.2°. The samples were prepared and analyzed without further processing (e.g. grinding or sieving) of the substance. The relative XRPD peak intensity is dependent upon many factors such as structure factor, temperature factor, crystallinity, polarization factor, multiplicity, and Lorentz factor. Relative intensities may vary considerably from one measurement to another due to preferred orientation effects. Humidity Controlled XRPD analyses were performed in reflection geometry with a Siemens D5000 Diffractometer (Cu radiation source, Ni K beta filter, Scintillation detector, angular range 3° to 42° 2Theta, approximately 180 minutes total measurement time per humidity level). The diffractometer is equipped with an MRI (Materials Research Instruments) humidity chamber. The humidity within the chamber is adjusted with an ANSYCO humidity controller (SYCOS H-HOT). For single crystal structure analysis a single crystal sample was mounted in a nylon loop on a goniometer and measured at ambient conditions. Alternatively, the crystal was cooled in a nitrogen stream during measurement. Data were collected on a GEMINI R Ultra diffractometer from Oxford Diffraction. Cu-radiation of 1.54 A wavelength was used for data collection. Data was processed with the Oxford Diffraction CRYSALIS software. The crystal structure was solved and refined with standard crystallographic software. In this case the program ShelXTL from Bruker AXS (Karlsruhe) was used. The abbreviation "FWHM" denotes the full width at half maximum, which is a width of a peak (e.g. appearing in a spectrum, particularly in an XRPD pattern) at its half height. The term "sharp Bragg diffraction peak" in connection with X-ray diffraction patterns denotes a peak which is observed if Bragg' s law of diffraction is fulfilled. Generally, the FWHM of a sharp Bragg diffraction peak is less than 0.5° 2-theta. The term "amorphous halo" in connection with X-ray diffraction patterns denotes an approximately bell- shaped diffraction maximum in the X-ray powder diffraction pattern of an amorphous material. The FWHM of an amorphous halo is on principle larger than the FWHM of the peak of crystalline material. The terms "FTIR" and "IR" denote the analytical method of infrared spectroscopy. The IR-spectra of the samples are recorded as film of a Nujol suspension consisting of approx. 5 mg of sample and approx. 5 mg of Nujol (mineral oil) between two sodium chloride plates (cross section 13 mm) in transmittance with a FTIR- spectrometer. The spectra were recorded in spectral range between 4000 cm"1 and 600 cm"1, resolution 2 cm"1, and 300 coadded scans on a Magna 860 (thermo/Nicolet) equipped with a DTGS detector. The term "Raman" denotes the analytical method of Raman spectroscopy. For recording Raman spectra, the samples were spread on a glass slide. Raman spectra were recorded in the range of 150-3800 cm"1 with an ARAMIS (HoribaJobinYvon) Raman microscope equipped with a Peltier cooled CCD detector, at excitation of 633 nm, a 1200 1/mm grating, a x50 objective and with 3 exposures of 3s, or 7s for weak Raman scatterers. The term "DSC" denotes the analytical method of Differential Scanning Calorimetry. DSC thermograms were recorded using a Mettler-Toledo™ differential scanning calorimeter DSC820, DSC821 or DSC1 with a FRS05 sensor. […]

[8] = non-competitive, refluxed in deionized water at about 95 °C for 3 hours, TGA

XRPD Result ([1]; Solvent DCM (entry -11)): HCl Pattern 2
XRPD Result ([1]; Solvent EtOAc (entry -08)): HCl Pattern 2
XRPD Result ([1]; Solvent EtOH (entry -02)): HCl Pattern 2
XRPD Result ([1]; Solvent IPA (10% water) (entry -06)): HCl Pattern 2
XRPD Result ([1]; Solvent IPA (entry -03)): HCl Pattern 2
XRPD Result ([1]; Solvent MEK (entry -09)): HCl Pattern 2
XRPD Result ([1]; Solvent MeCN (entry -05)): HCl Pattern 2
XRPD Result ([1]; Solvent MeOH (entry -01)): HCl Pattern 2
XRPD Result ([1]; Solvent Nitromethane (entry -12)): HCl Pattern 2
XRPD Result ([1]; Solvent TBME (entry -10)): HCl Pattern 2
XRPD Result ([1]; Solvent THF (5% water) (entry -07)): HCl Pattern 2
XRPD Result ([1]; Solvent THF (entry -04)): HCl Pattern 2
form by XRPD after polymorph assessment ([1]; freeze-dried material, 20 vols solvent, heat/cool cycles RT to 50°C for three days): known form HCl Pattern 2
KF [2]: 15.2 % water,
TGA heat / cool experiments: IC ([2]; Sample heated to 100°C): 1.6 eqsCl
TGA heat / cool experiments: XRPD ([2]; Sample heated to 100°C): Partially crystalline HCl Pattern 2
TGA heat / cool experiments: IC ([2]; Sample heated to 140°C): 1.7 eqs Cl
TGA heat / cool experiments: XRPD ([2]; Sample heated to 140°C): Partially crystalline HCl Pattern 2
IC ([2]; as determined): 1.7 eqs Cl (as determined)
TGA Weight loss ([2]; first step, by 100°C): 8%
solubility thermodynamic ([2]; pH 1, simulated gastric fluid, SGF (pH1.0)): 2800 µg/mL
XRPD (air dried) ([2]; scale-up HCl Pattern 2): New pattern (HCl Pattern 3)
TGA Weight loss ([2]; second step, to 140°C): 2.3%
solubility thermodynamic ([2]; simulated gastric fluid, 0.1N HCl (pH 0.9)): 3500 µg/mL
solubility thermodynamic ([2]; Water (pH 1.6)): 1600 µg/mL
TGA Weight loss ([2]; third step, to 210°C): 8.7%
uptake at the end of the analysis (GVS) ([3]; 25°C, equating to a tri-hydrate): 10.6 wt%
GVS: XRPD after the experiment ([3]; at the end of the experiment): no significant changes noted by XRPD
relative humidity to which the form appeared to be stable (GVS) ([3]; dehydration below 30%, rehydration by 40%): 30 %RH
VH-XRPD ([4]; between 45 and 80%RH): No change was noted between 45 and 80%RH
relative humidity to which the form is stable (VH-XRPD) ([4]; complete conversion to HCl Pattern 3 at 0.5%RH, reverted completely by 45%RH): 14 %RH
heating temperature for conversion to a new pattern (VT-XRPD) ([4]; reverted to partially crystalline HCl Pattern 2 upon cooling in air): above 80 °C
SMILES: Nc1nc2cc(-c3ccc4ncc(C(=O)N5CCOCC5)n4c3)ccc2o1 [HCl Pattern 2, (6-(2-aminobenzo[d]oxazol-5-yl)imidazo[1,2-a]pyridin-3-yl)(morpholino)methanone]
TGA heat / cool experiments ([2]; Sample heated to 210°C): Sample heated to 210°C, decomposition observed
Stability at 40°C/75%RH ([2]; XRPD, 3 weeks storage): No significant changes observed by XRPD after 3 weeks storage
KF ([2]; assuming 2 eqs Cl): corresponding to 4.3 eqs water, assuming 2 eqs Cl
IC ([2]; corrected with 15% w/w water content): 2.0 eqs Cl (corrected with 15% w/w water content)
XRPD (vacuum dried) ([2]; scale-up HCl Pattern 2): Crystalline. HCl Pattern 2; also recorded: Slight differences compared to HCl Pattern 2, possibly due to differences in crystallinity
GVS ([3]; below 30%RH): Further reversible weight toss below 30%RH may indicate lower stoichiometry hydrate.
GVS ([3]; between 30-40%RH): Reversible dehydration observed between 30-40%RH.
GVS Reversible uptake ([3]; between 40-90%RH): Reversible uptake of ca. 6 wt% between 40-90%RH.
VH-XRPD ([4]; lowering humidity, below 25%RH to 0.5%RH): The material starts to change below 25%RH, with full conversion to HCl Pattern 3 at 0.5%RH.
VH-XRPD ([4]; raising humidity, 13%RH to 45%RH): At 13%RH the material starts to revert back to HCl Pattern 2 with complete conversion by 45%RH.
VT-XRPD Heating to 100°C, then cool ([4]; scale-up HCl Pattern 2): Conversion to a new pattern at 80 °C (HCl 3), which returns to less crystalline HCl 2 upon cooling.
VT-XRPD Heating to 140°C ([4]; scale-up HCl Pattern 2): Conversion to HCl Pattern 3 at 80 °C that remains unchanged to 120°C, before losing crystallinity at higher temperature

stability of the salt form on drying under vacuum at room temperature [4]: unstable salt form
SMILES: Nc1nc2cc(-c3ccc4ncc(C(=O)N5CCOCC5)n4c3)ccc2o1 [HCl Pattern 3, (6-(2-aminobenzo[d]oxazol-5-yl)imidazo[1,2-a]pyridin-3-yl)(morpholino)methanone]

crystal form of the resulting material [5, 8]: Form A
SMILES: COc1ccc(Cl)c(S(=O)(=O)NC(=O)c2cn3cc(C(F)(F)F)cc(Cl)c3n2)c1 [Form TS ({drug1e}), 8-chloro-N-[(2-chloro-5-methoxyphenyl)sulfonyl]-6-(trifluoromethyl)-imidazo[1,2-a]pyridine-2-carboxamide]

aqueous solubility [6]: good aqueous solubility
stability with regard to disassociation ([6]; compared with other salts): greater stability
SMILES: Cc1ccc(S(=O)(=O)O)cc1.Nc1[nH]ncc1-c1cc(Cl)ccc1Oc1cc(F)c(S(=O)(=O)Nc2cscn2)cc1Cl [tosylate salt, 4-[2-(5-amino-1 H-pyrazol-4-yl)-4-chlorophenoxy]-5-chloro-2-fluoro-N-(1,3-thiazol-4-yl)benzenesulfonamide tosylate]
chemical stability ([6]; in particular with regard to formulation and storage): improved chemical stability over the free base

crystal form of the resulting material ([5]; slurry in deionized water stirred at 25 °C for about 168 hours): Form A
SMILES: COc1ccc(Cl)c(S(=O)(=O)NC(=O)c2cn3cc(C(F)(F)F)cc(Cl)c3n2)c1 [mixed Forms A and B, 8-chloro-N-[(2-chloro-5-methoxyphenyl)sulfonyl]-6-(trifluoromethyl)-imidazo[1,2-a]pyridine-2-carboxamide]

stability of the salt form on drying under vacuum at room temperature [4]: partially reverted to the free base
SMILES: Nc1nc2cc(-c3ccc4ncc(C(=O)N5CCOCC5)n4c3)ccc2o1 [HCl Pattern 1, (6-(2-aminobenzo[d]oxazol-5-yl)imidazo[1,2-a]pyridin-3-yl)(morpholino)methanone]

crystal form of the resulting material [5, 8]: Form A
SMILES: COc1ccc(Cl)c(S(=O)(=O)NC(=O)c2cn3cc(C(F)(F)F)cc(Cl)c3n2)c1 [Form B ({drug1b}), 8-chloro-N-[(2-chloro-5-methoxyphenyl)sulfonyl]-6-(trifluoromethyl)-imidazo[1,2-a]pyridine-2-carboxamide]

crystal form of the resulting material [5, 8]: Form A
SMILES: COc1ccc(Cl)c(S(=O)(=O)NC(=O)c2cn3cc(C(F)(F)F)cc(Cl)c3n2)c1 [Form D ({drug1d}), 8-chloro-N-[(2-chloro-5-methoxyphenyl)sulfonyl]-6-(trifluoromethyl)-imidazo[1,2-a]pyridine-2-carboxamide]

SMILES: Cc1onc(-c2ccc(F)cc2)c1COc1ccc(C(=O)N2CCS(=O)(=O)CC2)cn1 [Form E ({drug4e}), (1,1-dioxo-1lambda6-thiomorpholin-4-yl)-{6-[3-(4-fluoro-phenyl)-5-methyl-isoxazol-4-ylmethoxy]-pyridin-3-yl]-methanone]
humidity at which rapid reconversion into Form B is observed [7]: > 5 rH
thermodynamic stability of the solid form [7]: only limited stability at ambient conditions
